Among the data in patent publication US10421765B2, “Tetrahydropyrido[4,3-d]pyrimidine inhibitors of ATR kinase” (Board of Regents, The University of Texas System, priority 2017, dated 2019) are IC50 values, retold here.

In assay [1] the target is ATR/ATRIP complex (Homo sapiens (Human), UniProt Q13535). As to the kind of experiment: ATR/ATRIP enzymatic assay (Caliper-based). It is filed as biochemical. The settings on record: FAM-labeled RAD17 peptide, ATP. Put shortly: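 FLAG-TEV-ATR/His6-ATRIP co-expressed in HEK293 and anti-FLAG purified. Compound preincubated 30 min at 28 °C with enzyme (2x solution 4 nM), then FAM-RAD17 peptide (2x solution 10 uM, 2 μM ATP) added for 6 h at 28 °C; HEPES pH 8, 10 mM MnCl2. Caliper conversion read-out, IC50 from four-parameter fit.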

Assay [2] concerns ATR-driven phosphorylation of Chk1 kinase at Serine 345 in HT-29 colorectal adenocarcinoma cells. As to the kind of experiment: pCHK1 cellular assay (CHK1 p-Ser345 AlphaScreen SureFire). Format: cell-based. The settings on record: Homo sapiens, HT-29, HT-29 cells, 4-nitroquinoline N-oxide 12 uM; read-out: Cell IC50 (pCHK1 IC50 values). In a few lines: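 HT-29 cells seeded overnight, treated with 1:3 serially diluted compound for 90 minutes at 37° C., then 12 uM (final) 4-nitroquinoline N-oxide for 120 minutes. Lysates read for Chk1 p-Ser345 by AlphaScreen SureFire; IC50 from four-parameter logistic fit, normalized to DMSO (max) and 5 uM ATR inhibitor (min).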

Where [3] appears, read: read-out: ATR/ATRIP Enzyme IC50.
[4] abbreviates: estimated range, read-out: ATR/ATRIP Enzyme IC50 (estimated class).

Each structure is given as a SMILES string. Where two headings read alike, the source gives them in different places.

ATR/ATRIP complex, sequence (Q13535 whole entry): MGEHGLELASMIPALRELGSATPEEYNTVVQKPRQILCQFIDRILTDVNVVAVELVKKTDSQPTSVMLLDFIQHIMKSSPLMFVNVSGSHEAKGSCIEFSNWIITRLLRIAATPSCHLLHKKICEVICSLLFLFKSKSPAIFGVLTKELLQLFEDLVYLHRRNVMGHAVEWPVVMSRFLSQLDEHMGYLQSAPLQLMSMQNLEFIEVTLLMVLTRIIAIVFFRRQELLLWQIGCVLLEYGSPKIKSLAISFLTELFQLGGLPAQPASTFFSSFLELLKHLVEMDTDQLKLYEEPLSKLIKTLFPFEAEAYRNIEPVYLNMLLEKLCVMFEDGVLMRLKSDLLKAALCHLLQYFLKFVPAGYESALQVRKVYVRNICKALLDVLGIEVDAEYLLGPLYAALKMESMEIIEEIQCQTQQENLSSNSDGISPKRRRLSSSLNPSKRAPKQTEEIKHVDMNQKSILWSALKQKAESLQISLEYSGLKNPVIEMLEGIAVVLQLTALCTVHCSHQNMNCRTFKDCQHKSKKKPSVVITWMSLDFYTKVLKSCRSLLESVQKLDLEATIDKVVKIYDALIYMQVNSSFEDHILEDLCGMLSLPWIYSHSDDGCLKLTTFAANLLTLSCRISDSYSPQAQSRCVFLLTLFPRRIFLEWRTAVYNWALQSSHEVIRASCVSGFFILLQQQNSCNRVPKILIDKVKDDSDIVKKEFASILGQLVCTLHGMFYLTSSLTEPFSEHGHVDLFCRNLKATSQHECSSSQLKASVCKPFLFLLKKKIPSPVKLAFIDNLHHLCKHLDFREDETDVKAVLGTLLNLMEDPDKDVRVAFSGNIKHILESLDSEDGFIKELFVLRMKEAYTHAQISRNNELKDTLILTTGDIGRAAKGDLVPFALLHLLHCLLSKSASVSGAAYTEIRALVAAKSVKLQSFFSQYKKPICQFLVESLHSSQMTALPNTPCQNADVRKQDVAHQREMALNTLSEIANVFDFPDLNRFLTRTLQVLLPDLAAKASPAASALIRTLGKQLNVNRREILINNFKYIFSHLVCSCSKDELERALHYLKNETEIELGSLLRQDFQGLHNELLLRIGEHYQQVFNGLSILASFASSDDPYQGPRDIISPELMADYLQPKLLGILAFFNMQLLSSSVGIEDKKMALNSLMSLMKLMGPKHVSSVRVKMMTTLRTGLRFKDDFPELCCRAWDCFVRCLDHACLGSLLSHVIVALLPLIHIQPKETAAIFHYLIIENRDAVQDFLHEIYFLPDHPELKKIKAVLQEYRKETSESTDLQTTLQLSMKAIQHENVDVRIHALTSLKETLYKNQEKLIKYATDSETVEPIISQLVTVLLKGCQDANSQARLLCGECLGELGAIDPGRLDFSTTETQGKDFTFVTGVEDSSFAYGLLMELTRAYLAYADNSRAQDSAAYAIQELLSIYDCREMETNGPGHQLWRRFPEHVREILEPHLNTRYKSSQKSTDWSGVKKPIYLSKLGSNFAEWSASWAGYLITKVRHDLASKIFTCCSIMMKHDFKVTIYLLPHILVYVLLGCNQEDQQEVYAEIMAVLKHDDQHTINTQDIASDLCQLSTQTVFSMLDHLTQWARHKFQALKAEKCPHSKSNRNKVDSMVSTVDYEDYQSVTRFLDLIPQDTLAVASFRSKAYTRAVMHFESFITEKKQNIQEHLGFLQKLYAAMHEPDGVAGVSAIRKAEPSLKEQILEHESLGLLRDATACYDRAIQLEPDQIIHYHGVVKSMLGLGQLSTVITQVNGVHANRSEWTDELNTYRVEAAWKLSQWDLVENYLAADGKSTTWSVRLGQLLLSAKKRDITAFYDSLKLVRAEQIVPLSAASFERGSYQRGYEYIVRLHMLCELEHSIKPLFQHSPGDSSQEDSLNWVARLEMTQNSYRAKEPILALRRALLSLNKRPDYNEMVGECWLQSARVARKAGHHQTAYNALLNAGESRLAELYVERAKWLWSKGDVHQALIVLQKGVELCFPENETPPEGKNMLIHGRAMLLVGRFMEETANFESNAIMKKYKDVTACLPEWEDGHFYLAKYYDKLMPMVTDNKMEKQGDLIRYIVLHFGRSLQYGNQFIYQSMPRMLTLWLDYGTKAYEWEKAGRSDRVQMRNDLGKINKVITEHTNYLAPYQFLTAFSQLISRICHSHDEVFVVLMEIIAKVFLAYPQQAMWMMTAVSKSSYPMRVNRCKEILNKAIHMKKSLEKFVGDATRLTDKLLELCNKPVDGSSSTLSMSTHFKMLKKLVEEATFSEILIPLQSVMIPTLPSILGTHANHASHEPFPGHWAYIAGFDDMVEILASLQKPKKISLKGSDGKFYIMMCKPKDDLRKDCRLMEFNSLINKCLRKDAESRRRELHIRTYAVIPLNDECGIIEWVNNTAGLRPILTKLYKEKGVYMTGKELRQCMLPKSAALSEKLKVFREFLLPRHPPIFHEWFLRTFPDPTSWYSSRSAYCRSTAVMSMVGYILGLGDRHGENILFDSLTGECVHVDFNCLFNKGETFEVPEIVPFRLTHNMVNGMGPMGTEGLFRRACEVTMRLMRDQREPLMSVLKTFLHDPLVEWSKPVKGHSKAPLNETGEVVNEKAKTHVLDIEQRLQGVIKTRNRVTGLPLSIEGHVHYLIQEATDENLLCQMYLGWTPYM
ATR/ATRIP complex, sequence (Q8WXE1 whole entry partner): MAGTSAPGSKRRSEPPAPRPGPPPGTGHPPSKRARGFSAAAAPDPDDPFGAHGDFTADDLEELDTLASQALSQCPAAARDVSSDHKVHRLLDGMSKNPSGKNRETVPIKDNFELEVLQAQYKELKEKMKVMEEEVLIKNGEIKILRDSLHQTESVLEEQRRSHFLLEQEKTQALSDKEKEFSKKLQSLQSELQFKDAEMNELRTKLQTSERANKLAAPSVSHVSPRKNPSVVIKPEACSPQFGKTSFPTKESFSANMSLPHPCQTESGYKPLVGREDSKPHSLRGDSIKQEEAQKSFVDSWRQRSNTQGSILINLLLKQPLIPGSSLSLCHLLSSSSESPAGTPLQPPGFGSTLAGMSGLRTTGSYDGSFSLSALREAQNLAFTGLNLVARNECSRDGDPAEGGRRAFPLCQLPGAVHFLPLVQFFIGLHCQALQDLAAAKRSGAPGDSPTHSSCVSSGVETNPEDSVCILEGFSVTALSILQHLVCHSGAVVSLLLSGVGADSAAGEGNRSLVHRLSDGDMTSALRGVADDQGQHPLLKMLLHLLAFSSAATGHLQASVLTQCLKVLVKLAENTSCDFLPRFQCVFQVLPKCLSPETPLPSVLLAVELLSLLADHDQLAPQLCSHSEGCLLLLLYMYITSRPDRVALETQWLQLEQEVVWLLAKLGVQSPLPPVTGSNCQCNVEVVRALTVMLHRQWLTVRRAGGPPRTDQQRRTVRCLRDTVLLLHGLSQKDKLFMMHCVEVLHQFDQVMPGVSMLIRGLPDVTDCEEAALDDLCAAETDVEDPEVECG

Take `Cc1cc(N2Cc3c(ncnc3C3CCN(S(C)(=O)=O)CC3)C[C@H]2C)c2cc[nH]c2n1` [Example 56, (R)-7-methyl-6-(6-methyl-1H-pyrrolo[2,3-b]pyridin-4-yl)-4-(1-(methylsulfonyl)piperidin-4-yl)-5,6,7,8-tetrahydropyrido[4,3-d]pyrimidine]: the IC50 in assay [1] (setting [3]) is 773 nM; in assay [2] it was 52 nM.
Taken in the same sequence, the figures for `C[C@@H]1Cc2ncnc(N3C[C@H]4CC[C@@H](C3)C4NS(C)(=O)=O)c2CN1c1cc(Cl)nc2[nH]ccc12` (stereo partly drawn) [Example 13, N-((1R,5S)-3-((R)-6-(6-Chloro-1H-pyrrolo[2,3-b]pyridin-4-yl)-7-methyl-5,6,7,8-tetrahydropyrido[4,3-d]pyrimidin-4-yl)-3-azabicyclo[3.2.]octan-8-yl)methanesulfonamide] were 114 nM and 29 nM.
The matching figures for `C[C@@H]1Cc2ncnc(N3CC[C@H](S(C)(=O)=O)C3)c2CN1c1cc(Cl)nc2[nH]ccc12` [Example 86, (R)-6-(6-chloro-1H-pyrrolo[2,3-b]pyridin-4-yl)-7-methyl-4-((S)-3-(methylsulfonyl)-pyrrolidin-1-yl)-5,6,7,8-tetrahydropyrido[4,3-d]-pyrimidine]: 329 nM and 51 nM.
The matching figures for `C[C@@H]1Cc2ncnc(N3CC4CCC(C3)C4NS(C)(=O)=O)c2CN1c1ccnc2[nH]ccc12` (stereo partly drawn) [Example 69, N-(3-((R)-7-methyl-6-(1H-pyrrolo[2,3-b]-pyridin-4-yl)-5,6,7,8-tetrahydropyrido[4,3-d]-pyrimidin-4-yl)-3-aza-bicyclo[3.2.1]octan-8-yl)-methanesulfonamide]: 283 nM and 48 nM.
Turning to `C[C@@H]1Cc2ncnc(C3CN(S(C)(=O)=O)C3)c2CN1c1cc(Cl)nc2[nH]ccc12` [Example 47, (R)-6-(6-Chloro-1H-pyrrolo[2,3-b]pyridin-4-yl)-7-methyl-4-(1-(methylsulfonyl)azetidin-3-yl)-5,6,7,8-tetrahydropyrido[4,3-d]pyrimidine], the IC50 in assay [1] (setting [3]) was found to be 287 nM; in assay [2] it was 30 nM.
As to `COC(=O)NC1[C@@H]2CC[C@H]1CN(c1ncnc3c1CN(c1cc(Cl)nc4[nH]ccc14)[C@H](C)C3)C2` (stereo partly drawn) [Example 28, methyl N-{3-[(7R)-6-{6-chloro-1H-pyrrolo[2,3-b]-pyridin-4-yl}-7-methyl-5H,6H,7H,8H-pyrido[4,3-d]pyrimidin-4-yl]-3-aza-bicyclo[3.2.1]octan-8-yl}carbamate], the results for the IC50 in assay [1] (setting [4]) and in assay [2] were 1000 to 10000 nM and 46 nM, respectively.
With `C[C@@H]1Cc2ncnc(C3CCN(S(C)(=O)=O)CC3)c2CN1c1nccc2[nH]ccc12` [Example 59, (R)-7-methyl-4-(1-(methylsulfonyl)piperidin-4-yl)-6-(1H-pyrrolo[3,2-c]pyridin-4-yl)-5,6,7,8-tetrahydropyrido[4,3-d]pyrimidine], the IC50 in assay [1] (setting [3]) amounted to 2650 nM; in assay [2], 555 nM.
The matching figures for `C[C@@H]1Cc2ncnc(N3CCC(O)CC3)c2CN1c1cc(Cl)nc2[nH]ccc12` [Example 12, (R)-1-(6-(6-Chloro-1H-pyrrolo[2,3-b]pyridin-4-yl)-7-methyl-5,6,7,8-tetrahydropyrido[4,3-d]pyrimidin-4-yl)piperidin-4-ol]: 518 nM and 28 nM.
Taken in the same sequence, the figures for `C[C@@H]1Cc2ncnc(N3CCCC(C(C)(C)O)C3)c2CN1c1cc(Cl)nc2[nH]ccc12` (stereo in doubt) [Example 45, 2-((R)-1-((R)-6-(6-Chloro-1H-pyrrolo[2,3-b]pyridin-4-yl)-7-methyl-5,6,7,8-tetrahydropyrido[4,3-d]pyrimidin-4-yl)piperidin-3-yl)propan-2-ol] were 378 nM and 39 nM.
On to `CS(=O)(=O)N1CCC(c2ncnc3c2CN(c2ccnc4[nH]ccc24)CC3)CC1` [Example 2, 4-(1-(Methylsulfonyl)piperidin-4-yl)-6-(1H-pyrrolo[2,3-b]pyridin-4-yl)-5,6,7,8-tetrahydropyrido[4,3-d]pyrimidine bis(trifluoroacetate)], for which the IC50 was 1000 to 10000 nM in assay [1] (setting [4]) and 1940 nM in assay [2].
The matching figures for `CS(=O)(=O)c1cccc(-c2ncnc3c2CN(c2ccnc4[nH]ccc24)CC3)c1` [Example 14, 4-(3-methanesulfonyl-phenyl)-6-{1H-pyrrolo-[2,3-b]pyridin-4-yl}-5H,6H,7H,8H-pyrido [4,3-d]pyrimidine]: 1000 to 10000 nM and 1610 nM.
On to `C[C@@H]1Cc2ncnc(N3CCCC(C#N)C3)c2CN1c1ccnc2[nH]ccc12` (stereo partly drawn) [Example 83, 1-((R)-7-methyl-6-(1H-pyrrolo[2,3-b]pyridin-4-yl)-5,6,7,8-tetrahydro-pyrido[4,3-d]pyrimidin-4-yl)piperidine-3-carbonitrile], for which the IC50 was found to be 364 nM in assay [1] (setting [3]) and 56 nM in assay [2].
Taken in the same sequence, the figures for `C[C@@H]1Cc2ncnc([C@@H]3CCN(S(C)(=O)=O)C(C)(C)C3)c2CN1c1ccnc2[nH]ccc12` (single isomer, unassigned) [Example 48a] were 3330 nM and 758 nM.
Taken in the same sequence, the figures for `C[C@@H]1Cc2ncnc(C3CCN(S(=O)(=O)C4CC4)CC3)c2CN1c1ccnc2[nH]ccc12` [Example 80, (R)-4-(1-(cyclopropyl-sulfonyl)piperidin-4-yl)-7-methyl-6-(1H-pyrrolo[2,3-b]pyridin-4-yl)-5,6,7,8-tetrahydro-pyrido[4,3-d]pyrimidine] were 1090 nM and 132 nM.
With `CCC(=O)NC1[C@@H]2CC[C@H]1CN(c1ncnc3c1CN(c1cc(Cl)nc4[nH]ccc14)[C@H](C)C3)C2` (stereo partly drawn) [Example 27, N-[3-[(7R)-6-{6-chloro-1H-pyrrolo[2,3-b]pyridin-4-yl}-7-methyl-5H,6H,7H,8H-pyrido[4,3-d]pyrimidin-4-yl]-3-aza-bicyclo[3.2.1]octan-8-yl}propanamide], the IC50 in assay [1] (setting [4]) is 1000 to 10000 nM; in assay [2], 38 nM.
`C[C@@H]1Cc2ncnc(C3CCN(S(C)(=O)=O)CC3)c2CN1c1cc(C2CC2)nc2[nH]ccc12` [Example 95, (R)-6-(6-cyclopropyl-1H-pyrrolo[2,3-b]pyridin-4-yl)-7-methyl-4-(1-(methylsulfonyl)-piperidin-4-yl)-5,6,7,8-tetrahydropyrido[4,3-d]-pyrimidine]: the IC50 is 270 nM in assay [1] (setting [3]) and 54 nM in assay [2].
The matching figures for `C[C@@H]1Cc2ncnc(C3CCN(C(=O)C(C)(C)O)CC3)c2CN1c1ccnc2[nH]ccc12` [Example 49, (R)-2-Hydroxy-2-methyl-1-(4-(7-methyl-6-(1H-pyrrolo[2,3-b]pyridin-4-yl)-5,6,7,8-tetrahydropyrido[4,3-d]pyrimidin-4-yl)piperidin-1-yl)propan-1-one]: 3600 nM and 654 nM.
For the compound `C[C@@H]1Cc2ncnc(N3CCC(S(C)(=O)=O)CC3)c2CN1c1cc(Cl)nc2[nH]ccc12` [Example 9, (R)-6-(6-Chloro-1H-pyrrolo[2,3-b]pyridin-4-yl)-7-methyl-4-(4-(methylsulfonyl)-piperidin-1-yl)-5,6,7,8-tetrahydropyrido[4,3-d]pyrimidine bis(trifluoroacetate)], the IC50 in assay [1] (setting [3]) was found to be 442 nM; in assay [2], 25 nM.
With `COC(=O)N1CCC(c2ncnc3c2CN(c2cc(Cl)nc4[nH]ccc24)[C@H](C)C3)CC1` [Example 25, methyl 4-[(7R)-6-{6-chloro-1H-pyrrolo[2,3-b]pyridin-4-yl}-7-methyl-5H,6H,7H,8H-pyrido [4,3-d]pyrimidin-4-yl]piperidine-1-carboxylate], the IC50 in assay [1] (setting [3]) was found to be 899 nM; in assay [2], 28 nM.
